Columns and labels:
GABA-T = GABA-T inhibition in mouse brain after daily i.p. injection for four consecutive days (Example 10); assay type: in vivo, mice (male albino CDI); settings: 24 hours after last dose
Protocol: (§1) A group of 10 male albino CDI mice from Charles Riner, France, is given an i.p. injection of the test compound in aqueous solution daily for four consecutive days. Half of the animals are killed by decapitation 24 hours after the last dose of the test compound. The other half of the animals are observed for up to 12 days for toxicity (as indicated by weight loss and deaths). Control animals receive an injection of the vehicle only.
The brains are removed from the dead mice and are divided into two portions by sagittal section. One half is used for the measurement of GABA-T activity while the other half is used for measuring GABA content. The GABA-T activity is measured using known methods as described by M. Jung et al., J. Neurochem., 28, 717 (1977) and 29, 797 (1977). GABA content is measured by perchloric acid or trichloroacetic acid extracts using an amino acid analyzer equiped with a fluorescene detector.
(§2) When tested as described above, 1-fluoro-2,4-diaminobutane (MFDB) and 1,1-difluoro-2,4-diaminobutane (DFDB) gave the results set forth in Table I below: […]

[1] = Toxicity (weight loss and deaths) in mice after daily i.p. injection for four consecutive days, observed up to 12 days (Example 10); assay type: in vivo, mice (male albino CDI)
Protocol: as §1, §2

[2] = 5 mg/kg daily i.p. for 4 days, observed up to 12 days

Structure (SMILES)	GABA-T Inhibition (GABA-T; 2 mg/kg daily i.p. for 4 days) [%]	GABA-T Inhibition (GABA-T; 5 mg/kg daily i.p. for 4 days) [%]	GABA-T Inhibition (GABA-T; 10 mg/kg daily i.p. for 4 days) [%]	GABA-T Inhibition (GABA-T; 20 mg/kg daily i.p. for 4 days) [%]	Weight Loss ([1]; 2 mg/kg daily i.p. for 4 days) [%]	Morality (After treatment) ([1]; 2 mg/kg daily i.p. for 4 days, observed up to 12 days)	Weight Loss ([1]; 5 mg/kg daily i.p. for 4 days) [%]	Morality (After treatment) [1, 2]	Weight Loss ([1]; 10 mg/kg daily i.p. for 4 days) [%]	Morality (After treatment) ([1]; 10 mg/kg daily i.p. for 4 days, by day 8)	Weight Loss ([1]; 20 mg/kg daily i.p. for 4 days) [%]	Morality (After treatment) ([1]; 20 mg/kg daily i.p. for 4 days, by day 6)	GABA-T Inhibition (GABA-T; 25 mg/kg daily i.p. for 4 days) [%]	GABA-T Inhibition (GABA-T; 50 mg/kg daily i.p. for 4 days) [%]	Morality (After treatment) ([1]; 10 mg/kg daily i.p. for 4 days, observed up to 12 days)	Weight Loss ([1]; 25 mg/kg daily i.p. for 4 days) [%]	Morality (After treatment) ([1]; 25 mg/kg daily i.p. for 4 days, on day 12)	Weight Loss ([1]; 50 mg/kg daily i.p. for 4 days) [%]	Morality (After treatment) ([1]; 50 mg/kg daily i.p. for 4 days, on day 8)
NCCC(N)C(F)F (stereo not drawn) [DFDB, 1,1-Difluoro-2,4-diaminobutane]	69.5	71.4	81	96.7	0	0/5	0	0/5	-25	2/5	-30	5/5							
NCCC(N)CF (stereo not drawn) [MFDB, 1-Fluoro-2,4-diaminobutane]		39.7	49.8				0	0/5	0				74	79	0/5	-20	2/5	-35	3/5

Reference: patent US4435425A, “Fluorinated diaminobutane derivatives” (Merrell Toraude et Compagnie, priority 1982, dated 1984)
